Results from PubChem BioAssay (NCI).
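Five concentrations, 48 hours, 96-well plates. TGI denotes the concentration required for complete inhibition of growth.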

Key:
Test in all cases: growth of human tumour cells (NCI), 48 h
DLD-1 colon = tested on: DLD-1 colon
DMS 114 small cell lung = tested on: DMS 114 small cell lung
DMS 273 small cell lung = tested on: DMS 273 small cell lung
KM20L2 colon = tested on: KM20L2 colon
LXFL 529 NSCLC = tested on: LXFL 529 NSCLC
M19-MEL melanoma = tested on: M19-MEL melanoma
RXF-631 renal = tested on: RXF-631 renal
SNB-78 CNS = tested on: SNB-78 CNS
XF 498 CNS = tested on: XF 498 CNS

Compound | TGI (DLD-1 colon) [µM] | TGI (DMS 114 small cell lung) [µM] | TGI (DMS 273 small cell lung) [µM] | TGI (KM20L2 colon) [µM] | TGI (LXFL 529 NSCLC) [µM] | TGI (M19-MEL melanoma) [µM] | TGI (RXF-631 renal) [µM] | TGI (SNB-78 CNS) [µM] | TGI (XF 498 CNS) [µM]
C[C@H](NC(=O)n1c2ccccc2c2ccccc21)C(=O)O | > 100 | > 100 | > 100 | > 100 | > 100 | > 100 | > 100 |  | 
C/C(=N\NS(=O)(=O)c1ccc(C)cc1)c1cc2ccccc2n1C | > 100 | > 100 | > 100 | > 100 | > 100 | > 100 |  |  | 
CCOC(=O)CSc1nnc(CSc2nc(-c3ccccc3)c(-c3ccccc3)[nH]2)n1-c1ccccc1 | > 100 | 39.8 | > 100 | 59.2 | 42.4 | > 100 |  | 68.5 | 46.3
CC(Oc1ccc(OCC2CCCCC2)cc1)C(=O)NCCO (stereo unspecified) | > 100 | > 100 | > 100 |  | > 100 | > 100 |  | > 100 | 
Cc1cc2oc(-c3ccccc3)c(C)c(=O)c2c2c1OC(C)(C)S2 | > 100 | > 100 | > 100 | > 100 | > 100 | > 100 | > 100 |  | > 100
CC1=NN2C(c3ccc(C)cc3)=CSC2=NC(C)(C)C1 | > 100 | > 100 |  | > 100 | > 100 | > 100 |  | > 100 | > 100
COc1ccc(N2C(=O)c3c(c4[nH]c5ccc(OC)cc5c4c4ccc(C(C)(C)C)cc34)C2=O)cc1 | > 100 | > 100 | > 100 |  | > 100 | > 100 |  | > 100 | > 100
COC(=O)C1=CC2CC1C(S(=O)(=O)c1ccccc1)C2S(=O)(=O)c1ccccc1 (stereo unspecified) | 29.8 | 36 | 23.4 | 33.2 | 18.6 | 42.2 | 26.9 |  | 
